Read-outs that look alike come from different tables or passages of the source.
How the values were obtained:
[1] = Rat 28-day toxicokinetics; type: in vivo; conditions: plasma, po; for AUC: read-out: AUC within 24 hours post dosing; for half-life: read-out: apparent terminal half-life (converted)
Experimental: In the rat repeated-dose toxicokinetic study, fexinidazole was administered orally by gavage once a day for 28 consecutive days to ten or fifteen Crl:CD (SD)IGS BR rats/sex/group at doses of 50, 200, or 800 mg/kg/day. A control group received the vehicle alone (5% Tween 80/0.5% methocel). Ten animals/sex/group were sacrificed at the end of the treatment period on day 29 or 30 of study. The remaining 5 animals/sex/group in the control and high-dose groups were sacrificed on day 43 at the end of a 2-weeks observation period. Systemic exposure to fexinidazole and its sulfoxide and sulfone metabolites was evaluated in three additional animals/sex/group. Samples were taken at predose, and 30 min, 1, 2, 4, 8 and 24 h after dosing on days 1, 14, and 28, and in addition at 48 and 72 h after treatment on day 28.
Toxicokinetic Report for the study No. 0504-2007
SD Standard deviation of the mean […]
t1/2,z Terminal half-life tmax Time to peak plasma concentration
ULOQ Upper limit of quantification
The study was conducted according to the study protocol and related amendment.
Fexinidazole was orally given by gavage once a day for 28 days to male and female Sprague Dawley rats according to the following scheme
Fexinidazole was suspended with 5% Tween 80 in 0.5% Methyl cellulose 400 cP.
6.2. Sample Collection and Handling
Blood samples (about 0.25 mL/sampling time) were withdrawn from retro-orbital sinus plexus under isofluorane anesthesia and put in heparinized plastic tubes kept on a ice-water bath, then centrifuged for 10 min at 1200g at +4°C and two aliquots of about 50 μL of plasma were stored in a freezer at -80°C until analysis. Blood was taken from three rats/gender/dose on Days 1 and 14 at pre-dose and 0.5, 1, 2, 4, 8 and 24 hours after dosing, on Day 28 at pre-dose and 1, 2, 4, 8, 24, 48 and 72 hours after dosing. After the administration of the vehicle, the samples were taken from three rats/gender at pre-dose and […]
6.3. Bioanalytical Method
Rat plasma concentrations of Fexinidazole and its sulfoxide (M1) and sulfone (M2) metabolites were determined by a validated LC/MS/MS method. The calibration range for the assay was 5-1000 ng/mL for Fexinidazole and 25-25000 ng/mL for M1 and M2.
Study samples containing analytes concentrations above the upper limit of quantitation were diluted with blank matrix prior to analysis.
6.4. Pharmacokinetic Calculations
Pharmacokinetic evaluation was carried out using non-compartmental approach with the aid […]
Excel spreadsheet (Microsoft Inc., Seattle, USA). […]
In the calculations, the undetectable concentrations between detectable ones were ignored.
After each dose level, Cmax and tmax of Fexinidazole and sulfoxide and sulfone metabolites […]
linear trapezoidal rule up to the last detectable concentration. On Day 28, since the blood […]
24 hours post dosing was calculated and denoted AUC0-24. This AUC was calculated in order to compare AUC values on Day 28 to those on Day 1 and Day 14. On Day 28, in addition, the half-life of the terminal phase, t1/2,z, was determined by linear regression analysis of the natural-log concentration vs. time curve, where t1/2,z = ln(2)/slope of the regression line.
Fexinidazole and metabolites accumulation ratios, based on Cmax (RA,Cmax), AUC0-24 (RA,AUC0-24) and AUC0-t(last) (RA,AUC0-t(last)), were calculated as the ratio between the parameters obtained on Day 14 and Day 28 to the corresponding one at Day 1. […]
pharmacokinetic parameters of each compound sorted by dose, gender and day of dosing. […]
compound are reported in Tables 1 and 2, whilst individual and mean parameters of each […]
Individual and mean (±SD, CV%) plasma
2A1 - 19A1 of Appendix 1. Individual plasma concentrations of Fexinidazole and both metabolites are plot in Figures 1 - 9, whilst the mean concentrations are plot in Figures 10 - 15. Mean normalized Cmax and AUC0-t(last) values of Fexinidazole and metabolites vs. dose are plot in Figures 16 - 21.
In-study bioanalytical validation data are reported in Appendix 2. All analytical batches met […]

hERG = hERG (Homo sapiens, UniProt Q12809); assay: hERG tail current, patch clamp in HEK 293 cells; conditions: for Residual Current (% of control): 37°C
hERG, sequence (Q12809 whole entry): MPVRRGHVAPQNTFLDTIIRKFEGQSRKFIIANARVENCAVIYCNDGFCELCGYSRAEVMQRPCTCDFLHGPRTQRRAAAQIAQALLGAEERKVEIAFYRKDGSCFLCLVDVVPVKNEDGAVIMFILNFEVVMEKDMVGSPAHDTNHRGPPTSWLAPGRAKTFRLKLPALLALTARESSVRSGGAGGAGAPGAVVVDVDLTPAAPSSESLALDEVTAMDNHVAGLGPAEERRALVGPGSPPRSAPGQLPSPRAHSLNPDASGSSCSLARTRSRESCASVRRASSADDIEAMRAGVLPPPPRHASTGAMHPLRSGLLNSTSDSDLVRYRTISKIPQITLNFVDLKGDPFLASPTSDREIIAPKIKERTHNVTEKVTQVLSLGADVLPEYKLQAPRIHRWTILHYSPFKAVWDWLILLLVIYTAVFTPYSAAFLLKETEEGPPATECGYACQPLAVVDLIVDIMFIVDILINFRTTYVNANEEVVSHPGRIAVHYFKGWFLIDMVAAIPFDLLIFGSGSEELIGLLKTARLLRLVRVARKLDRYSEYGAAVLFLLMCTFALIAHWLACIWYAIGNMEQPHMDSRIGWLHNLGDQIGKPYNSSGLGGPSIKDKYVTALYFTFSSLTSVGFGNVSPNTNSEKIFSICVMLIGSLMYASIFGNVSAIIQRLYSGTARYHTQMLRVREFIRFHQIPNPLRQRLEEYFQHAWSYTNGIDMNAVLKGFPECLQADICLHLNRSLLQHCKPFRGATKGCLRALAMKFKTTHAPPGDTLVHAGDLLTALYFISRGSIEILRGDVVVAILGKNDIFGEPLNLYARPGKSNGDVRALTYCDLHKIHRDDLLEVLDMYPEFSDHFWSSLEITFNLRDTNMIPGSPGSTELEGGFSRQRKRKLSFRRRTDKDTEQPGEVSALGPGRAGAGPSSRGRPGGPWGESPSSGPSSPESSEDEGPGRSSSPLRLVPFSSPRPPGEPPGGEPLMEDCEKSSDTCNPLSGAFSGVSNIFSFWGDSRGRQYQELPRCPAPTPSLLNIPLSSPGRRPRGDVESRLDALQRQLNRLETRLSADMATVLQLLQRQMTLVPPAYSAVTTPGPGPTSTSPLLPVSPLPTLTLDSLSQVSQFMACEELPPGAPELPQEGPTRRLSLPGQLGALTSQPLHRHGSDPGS
Experimental: Formulation and stored at 2-4°C when not in use. When in use Tyrode solution was stored at
CaCl2, 1 MgCl2, 5.5 glucose and 5 HEPES. During the patch-clamp experiments the Tyrode
4.2.4. Storage and Formulation of Internal Solution
The internal solution was stored frozen at – 20°C until the day of use. The composition of
the internal solution was (in mM): 110 K+- aspartate, 23 KCl, 3 MgCl2, 1 EGTA, 5 HEPES,
0.4 GTP (Na+ salt), 5 ATP (Na+ salt), 5 creatine phosphate, 0.4 CaCl2 (pH 7.3 with KOH).
4.3.1. Source and Maintenance of hERG Transfected Cells
HEK 293 cells stably transfected with hERG cDNA, supplied by bSys GmbH Switzerland,
continuously maintained and passaged in sterile culture flasks containing a mixture of
Dulbecco’s modified Eagle’s medium and nutrient mixture F-12 supplemented with 10%
foetal bovine serum, 0.9% Penicillin/Streptomycin solution, Hygromycin B and Blasticidin.
HEK 293 cells were passaged at a confluence of about 80%. For electrophysiology studies,
the cells were seeded in Petri dishes (35x10 mm), with culture medium containing
tetracycline to activate channel expression, at a density that enables isolated cells to be
selected for patch-clamping. The dishes were stored in a humidified, gassed (5% CO2)
Petri dishes containing the cells to be used for electrophysiological studies were mounted on
the stage of an inverted microscope and were superfused with Tyrode solution. Membrane
currents were recorded (Axopatch 200B, Axon Instruments) in the whole cell configuration
by using suction pipettes (Harvard apparatus, 1.5 mm o.d. x 0.86 mm i.d.) with tip resistance
in the range of 2.5-3.5 MΩ. Gigaohm seals were formed between the patch electrodes and
individual cells. If the quality of the seal was judged to be poor, the electrode was replaced
and the process repeated with a different cell. Once a stable patch was achieved, recording
was commenced in voltage-clamp mode, with the cell initially clamped at –80 mV. Series
resistance and capacitance were compensated to about 70% of their initial value. Cells were
perfused through a microperfusion system allowing for solution changes to occur within
approximately one second. Computer software (pClamp version 8.0; Axon Instruments) was
used to generate voltage clamp protocols, acquire data and analyze current traces. The data
were stored on a computer hard disk for later analysis. Experiments were performed at a
temperature in the recording chamber of 37 ± 1°C, which was maintained with a temperature
Cells stably expressing hERG were held at –80 mV. Onset and steady state block of the
hERG channel current (IKr) due to the test items were monitored using a pulse pattern with
fixed amplitudes (first depolarization: -50 mV for 500 ms; second depolarization: +20 mV
for 2 seconds; hyperpolarization: -50 mV for 7 seconds). This pulse pattern was repeated
every 15 seconds, and current amplitude at the onset of the second step to –50 mV (“peak
tail current”) was monitored until a steady state was obtained. Recordings were acquired at
the sampling interval of 2 kHz and low-pass filtered at 1 kHz. The steady state peak tail
current was monitored and recorded in vehicle solution and then the test item was applied to
the bath solution. At the end the reference item E4031 was applied to block 100% of the
current for determination of the current “leak” response to the stimulation protocol. The
current amplitude was continually monitored through the onset of the voltage step to –50
mV until a new steady state level of current was achieved. Each cell was exposed to a single
test substance concentration.
4.5. Statistical Analysis
For each cell the effect of the test items was ascertained by calculating the residual current as
percentage of control (% control). All data were corrected for “leak” current by subtracting
Each value represents the average current
recorded from 3 sequential voltage pulses. Data from individual cells was collected and the

[2] = One-electron reduction potential by pulse radiolysis; type: physicochemical
Experimental: One-electron reduction potentials were determined by pulse radiolysis following an established procedure.

[3] = Sprague Dawley (Crl:CD (SD)IGS BR), 50 mg/kg/day, Day 28, female
[4] = Sprague Dawley (Crl:CD (SD)IGS BR), 200 mg/kg/day, Day 28, female
[5] = Sprague Dawley (Crl:CD (SD)IGS BR), 200 mg/kg/day, Day 28, male
[6] = Sprague Dawley (Crl:CD (SD)IGS BR), 800 mg/kg/day, Day 28, female (n=2)
[7] = Sprague Dawley (Crl:CD (SD)IGS BR), 800 mg/kg/day, Day 28, male
[8] = Sprague-Dawley (Crl:CD (SD)IGS BR), 50 mg/kg/day, 50 mg/kg/day po, day 1
[9] = Sprague-Dawley (Crl:CD (SD)IGS BR), 50 mg/kg/day, 50 mg/kg/day po, day 14
[10] = Sprague-Dawley (Crl:CD (SD)IGS BR), 200 mg/kg/day, 200 mg/kg/day po, day 1
[11] = both sexes, Sprague-Dawley (Crl:CD (SD)IGS BR), 200 mg/kg/day, 200 mg/kg/day po, day 14
[12] = both sexes, Sprague-Dawley (Crl:CD (SD)IGS BR), 800 mg/kg/day, 800 mg/kg/day po, day 1
[13] = both sexes, Sprague-Dawley (Crl:CD (SD)IGS BR), 800 mg/kg/day, 800 mg/kg/day po, day 14

CSc1ccc(OCc2ncc([N+](=O)[O-])n2C)cc1 [Fexinidazole, 1-methyl-2-((p-(methylthio)phenoxy)methyl)-5-nitroimidazole]
AUC [1, 3]: 1450 ± 335 ng·h/mL | half-life [1, 3]: 5.1 ± 5.1 h | half-life ([1]; Sprague Dawley (Crl:CD (SD)IGS BR), 50 mg/kg/day, Day 28, male): 4.7 ± 1.2 h | AUC [1, 4]: 4440 ± 514 ng·h/mL | half-life [1, 4]: 6.3 ± 4.5 h | AUC [1, 5]: 2330 ± 1760 ng·h/mL | half-life [1, 5]: 8.8 ± 4.8 h | AUC [1, 6]: 7640 ± 1780 ng·h/mL | half-life [1, 6]: 6.7 ± 2.3 h | AUC [1, 7]: 3170 ± 734 ng·h/mL | half-life [1, 7]: 11 ± 2.7 h | Cmax [1, 8]: 90 ± 70 ng/mL | Tmax [1, 8]: 1.42 ± 1.28 h | AUC(0-t) ([1]; Sprague-Dawley (Crl:CD (SD)IGS BR), 50 mg/kg/day, 50 mg/kg/day po, day 1, read-out: AUC0-t(last)): 470 ± 340 ng·h/mL | Cmax [1, 9]: 180 ± 140 ng/mL | Tmax [1, 9]: 1.92 ± 1.2 h | AUC(0-t) ([1]; Sprague-Dawley (Crl:CD (SD)IGS BR), 50 mg/kg/day, 50 mg/kg/day po, day 14, read-out: AUC0-t(last)): 830 ± 540 ng·h/mL | Cmax [1, 10]: 380 ± 280 ng/mL | Tmax [1, 10]: 1.92 ± 1.2 h | AUC(0-t) ([1]; both sexes, Sprague-Dawley (Crl:CD (SD)IGS BR), 200 mg/kg/day, 200 mg/kg/day po, day 1, read-out: AUC0-t(last)): 2160 ± 1340 ng·h/mL | Cmax [1, 11]: 520 ± 300 ng/mL | Tmax [1, 11]: 2.08 ± 1.11 h | AUC(0-t) ([1]; both sexes, Sprague-Dawley (Crl:CD (SD)IGS BR), 200 mg/kg/day, 200 mg/kg/day po, day 14, read-out: AUC0-t(last)): 3020 ± 1470 ng·h/mL | Cmax [1, 12]: 1480 ± 710 ng/mL | Tmax [1, 12]: 1.58 ± 0.66 h | AUC(0-t) ([1]; both sexes, Sprague-Dawley (Crl:CD (SD)IGS BR), 800 mg/kg/day, 800 mg/kg/day po, day 1, read-out: AUC0-t(last)): 12800 ± 4100 ng·h/mL | Cmax [1, 13]: 1020 ± 870 ng/mL | Tmax [1, 13]: 3.17 ± 2.84 h | AUC(0-t) ([1]; both sexes, Sprague-Dawley (Crl:CD (SD)IGS BR), 800 mg/kg/day, 800 mg/kg/day po, day 14, read-out: AUC0-t(last)): 9290 ± 5200 ng·h/mL | Cmax ([1]; female, Sprague Dawley (Crl:CD (SD)IGS BR), 50 mg/kg, Day 1, female): 149 ± 46 ng/mL | AUC(0-t) ([1]; female, Sprague Dawley (Crl:CD (SD)IGS BR), 50 mg/kg, Day 1, female, read-out: AUC0-t(last)): 759 ± 153 ng·h/mL | Cmax ([1]; female, Sprague Dawley (Crl:CD (SD)IGS BR), 50 mg/kg/day, Day 28, female): 422 ± 358 ng/mL | AUC(0-t) ([1]; female, Sprague Dawley (Crl:CD (SD)IGS BR), 50 mg/kg/day, Day 28, female, read-out: AUC0-t(last)): 1630 ± 570 ng·h/mL | Cmax ([1]; female, Sprague Dawley (Crl:CD (SD)IGS BR), 200 mg/kg, Day 1, female): 604 ± 211 ng/mL | AUC(0-t) ([1]; female, Sprague Dawley (Crl:CD (SD)IGS BR), 200 mg/kg, Day 1, female, read-out: AUC0-t(last)): 3200 ± 856 ng·h/mL | Cmax ([1]; female, Sprague Dawley (Crl:CD (SD)IGS BR), 200 mg/kg/day, Day 28, female): 903 ± 87 ng/mL | AUC(0-t) ([1]; female, Sprague Dawley (Crl:CD (SD)IGS BR), 200 mg/kg/day, Day 28, female, read-out: AUC0-t(last)): 4750 ± 508 ng·h/mL | Cmax ([1]; female, Sprague Dawley (Crl:CD (SD)IGS BR), 800 mg/kg, Day 1, female): 1480 ± 200 ng/mL | AUC(0-t) ([1]; female, Sprague Dawley (Crl:CD (SD)IGS BR), 800 mg/kg, Day 1, female, read-out: AUC0-t(last)): 15700 ± 3610 ng·h/mL | Cmax ([1]; female, Sprague Dawley (Crl:CD (SD)IGS BR), 800 mg/kg/day, Day 28, female (n=2)): 749 ± 90 ng/mL | AUC(0-t) ([1]; female, Sprague Dawley (Crl:CD (SD)IGS BR), 800 mg/kg/day, Day 28, female (n=2), read-out: AUC0-t(last)): 7940 ± 2210 ng·h/mL | Cmax ([1]; male, Sprague Dawley (Crl:CD (SD)IGS BR), 50 mg/kg, Day 1, male): 39 ± 17 ng/mL | AUC(0-t) ([1]; male, Sprague Dawley (Crl:CD (SD)IGS BR), 50 mg/kg, Day 1, male, read-out: AUC0-t(last)): 178 ± 99 ng·h/mL | Cmax ([1]; male, Sprague Dawley (Crl:CD (SD)IGS BR), 50 mg/kg/day, Day 28, male): 133 ± 24 ng/mL | AUC(0-t) ([1]; male, Sprague Dawley (Crl:CD (SD)IGS BR), 50 mg/kg/day, Day 28, male, read-out: AUC0-t(last)): 889 ± 287 ng·h/mL | Cmax ([1]; male, Sprague Dawley (Crl:CD (SD)IGS BR), 200 mg/kg, Day 1, male): 165 ± 97 ng/mL | AUC(0-t) ([1]; male, Sprague Dawley (Crl:CD (SD)IGS BR), 200 mg/kg, Day 1, male, read-out: AUC0-t(last)): 1120 ± 708 ng·h/mL | Cmax ([1]; male, Sprague Dawley (Crl:CD (SD)IGS BR), 200 mg/kg/day, Day 28, male): 255 ± 136 ng/mL | AUC(0-t) ([1]; male, Sprague Dawley (Crl:CD (SD)IGS BR), 200 mg/kg/day, Day 28, male, read-out: AUC0-t(last)): 4410 ± 3980 ng·h/mL | Cmax ([1]; male, Sprague Dawley (Crl:CD (SD)IGS BR), 800 mg/kg, Day 1, male): 1480 ± 1110 ng/mL | AUC(0-t) ([1]; male, Sprague Dawley (Crl:CD (SD)IGS BR), 800 mg/kg, Day 1, male, read-out: AUC0-t(last)): 10000 ± 2160 ng·h/mL | Cmax ([1]; male, Sprague Dawley (Crl:CD (SD)IGS BR), 800 mg/kg/day, Day 28, male): 523 ± 127 ng/mL | AUC(0-t) ([1]; male, Sprague Dawley (Crl:CD (SD)IGS BR), 800 mg/kg/day, Day 28, male, read-out: AUC0-t(last)): 11900 ± 5360 ng·h/mL | Residual Current (% of control) (hERG; 1 µM): 100.12±4.29% | Residual Current (% of control) (hERG; 5 µM): 94.86±1.06% | Residual Current (% of control) (hERG; 30 µM): 88.97±8.21% | effect on hERG peak tail current (hERG; 1, 5 and 30 µM): judged not to affect hERG peak tail current | single electron redox potential [2]: −511 mV
